Measurements reported in a melting point compilation (Tetko et al.; mined from patent text by program, amines drawn as free bases though some values may be those of a salt).

Row | melting point | Compound
1 | 70 to 72 °C | O=C(c1cc(C(F)(F)F)ccc1Cl)c1cc(C(F)(F)F)ccc1Cl
2 | 173 to 175 °C | Cc1ccc(Cn2c(-c3ccccc3)nc(Cl)c2CO)cc1
3 | 84 °C | COc1cc(CCC(=O)C2CCCC2=O)cc(OS(=O)(=O)c2ccc(C)cc2)c1OC (stereo unspecified)
4 | 136 °C | O=C1N(c2ccccc2Br)Cc2cnc(Nc3ccccc3)nc2N1c1cccc(CO)c1
5 | 62 to 63 °C | CCOc1ccc(CCCCC=CC(=O)O)cc1
6 | 215 to 243 °C | CC(=NO)c1cnc2c(NC(=O)c3c(Cl)cccc3Cl)cccc2c1
7 | 83 to 88 °C | O=C(NCCCCCC(=O)C(F)(F)F)OCC1c2ccccc2-c2ccccc21
8 | 275 °C | O=C(c1ccccc1)N1Cc2[nH]c3ccccc3c(=O)c2C1
9 | 267 to 269 °C | COc1ccc(-c2ccc3cc(C(=O)O)ccc3c2)cc1
10 | 150 to 153 °C | COc1cc2c3ccc(OC)c(OC)c3n(C(=O)c3ccc(-c4ccccc4)cc3)c2cc1OC
11 | 82 to 84 °C | CCn1nnc(C(CO)=C(c2ccc(F)cc2)c2ccc(F)cc2)n1
12 | 140 to 141 °C | COc1ccc(C(=O)c2ccccc2)cc1OCCCN1CCC(c2noc3cc(F)ccc23)CC1
13 | 176 to 178 °C | Cc1c(NC(=O)c2ccc(-c3ccc(F)cc3)cc2F)ccc2cc(CN3CCCC3)cnc12
14 | 105 to 107 °C | COc1ccc(/C=C/C(=O)/C=C/c2ccc(OC(F)(F)F)cc2)cc1
15 | 115 to 116 °C | CCOC(=O)/C(C)=C(/C)c1cccc(OCc2nc(-c3ccc(C(F)(F)F)cc3)oc2C)c1
16 | 270 to 274 °C | O=c1cc(-c2ccccc2)[nH]c2c(O)c(O)ccc12
17 | 144 to 145 °C | COc1cccc(CC(=O)O)c1OCCCCc1cn(-c2ccc(C(F)(F)F)cn2)nc1C(C)C
18 | 230 to 231 °C | Nc1ncccc1-c1nc2cc(C(F)(F)F)cnc2n1-c1ccc(CNC(=O)c2cccc(F)c2)cc1
19 | 144 to 145 °C | COc1ccc(S(=O)(=O)N2C(=O)C(O[Si](C)(C)C)(c3ccccc3C(F)(F)F)c3cc(Cl)ccc32)c(OC)c1 (stereo unspecified)
20 | 215 to 217 °C | COc1cc(Nc2c(C#N)cnc3cc(-c4ccc(CCN5CCOCC5)cc4)c(OC)cc23)c(Cl)cc1Cl
21 | 183 to 185 °C | Cc1c(S(=O)(=O)c2ccc(Cl)cc2)csc1-c1nc(-c2c(F)cccc2F)nn1C
22 | 115 to 116 °C | COc1ccc(C(C#N)C(=O)Cc2ccccc2)cc1 (stereo unspecified)

Row | melting point | Compound
23 | 90 to 92 °C | O=C1CN(CCCOc2ccc(NC(=O)c3cc(F)cc(N4CCCCC4)c3)c3ccccc23)CCN1
24 | 197 to 199 °C | CCc1cccc(CC)c1NC(=O)C(C)Br (stereo unspecified)
25 | 110 °C | CN(C)CCOc1ccccc1NC(=O)c1cccc2[nH]ccc12
26 | 67 to 68 °C | O[C@H](CCc1cccnc1)COc1ccc(C#Cc2ccccc2)cc1
27 | 96 to 98 °C | Cc1cc(OCC(=O)c2ccc(C(C)C)cc2)cc(C)c1C
28 | 244 to 246 °C | COc1ccc(Cn2c(=O)[nH]c3cc([N+](=O)[O-])ccc3c2=O)cc1
29 | 115 to 116 °C | COc1cnn(CN(C(=O)CCl)c2c(C)cccc2C)c1
30 | 240 °C | COc1cc(-c2ccc3ncc(NC(=O)Nc4ccccc4)nc3n2)ccc1O
31 | 83 °C | COc1ccc(N=C(C#Cc2ccccc2OC)N2CCN(Cc3ccc(C)cc3)CC2)cc1
32 | 238 to 239 °C | O=C(C=Cc1ccccc1)NCc1ccc(C(=O)O)cc1
33 | 309 to 311 °C | O=C1NC(=O)c2c1c(-c1ccccc1)cc1c2c2cc(O)ccc2n1CCCn1ccnc1
34 | 118 to 120 °C | COc1ccc(NC(=O)CCCC(O)c2ccc(OC)cc2)cc1 (stereo unspecified)
35 | 118 to 120 °C | CC(C)N1CCC(CNc2ccc(Cl)cc2C(=O)Nc2ccccn2)CC1
36 | 73 to 75 °C | CCCCC1(CCCC)CCc2c(OCc3ccccc3C(N)=O)cccc2C1O (stereo unspecified)
37 | 128 to 130 °C | Cc1ccc(C(=O)NCCCCOc2ccc(-n3ccnc3)cc2)cc1
38 | 189 to 191 °C | COC(=O)c1ccc(NC(=N)Nc2nc(-c3ccccc3)cs2)cc1
39 | 120 to 121 °C | CC(C)=NOCCCn1cnc2c(N)nc3cccnc3c21
40 | 219 to 222 °C | CC(C)(O)CCc1cc(F)c2ncc(C(=O)NCc3ccc(Cl)cc3)c(O)c2c1
41 | 222 to 223 °C | CSCc1cccc(CNC(=O)c2nc3scc(COCc4ccc(C(=O)O)cc4)c3c(=O)[nH]2)c1
42 | 198 to 200 °C | O=C(O)C1CCc2c(c3ccccc3n2C(=O)c2ccc3c(c2)OCO3)C1 (stereo unspecified)
43 | 169 to 171 °C | Cc1nc(N2CCN(Cc3ccccc3)C2=O)sc1C(=O)NCc1cccc(F)c1
44 | 92 to 93 °C | COC(=O)c1ccc(OCCOc2ccccc2)cc1

Second part, the molecule before the results:

Row | Compound | melting point
45 | CCOC(=O)/C(Cl)=N/Nc1ccc(OC)cc1 | 87 to 89 °C
46 | NC(=O)N(O)CCNC(=O)c1ccc(Oc2ccc(Cl)cc2)o1 | 173 to 175 °C
47 | O=S(=O)(Nc1ccccc1O)c1ccc2ccccc2c1 | 136 °C
48 | OC1CSC(Oc2cccnc2Br)C(O)C1O (stereo unspecified) | 151 °C
49 | Brc1ccccc1Cn1c(-c2ccc3c(c2)OCO3)nc2ccccc21 | 122 to 124 °C
50 | COC(=O)Cc1cc2cc(O)ccc2s1 | 136 to 137 °C
51 | Nc1ccccc1C(=O)c1ccc(F)cc1 | 125 to 127 °C
52 | CCCCCC(=S)SCCC | 55 to 56 °C
53 | CCCCCCCCCCCCCCCCOCC(CO)Oc1cc(-c2ccccc2)on1 (stereo unspecified) | 45.5 to 46.5 °C
54 | O=C(c1ccc(Cl)cc1)C(F)CCCl (stereo unspecified) | 53 °C
55 | COc1ccc(C=C2COCC(=Cc3ccc(OC)c(C)c3C)C2=O)c(C)c1C | 225 to 227 °C
56 | CC(=O)OC1CSC(Oc2cccc(-c3c(C)noc3C)c2)C(OC(C)=O)C1OC(C)=O (stereo unspecified) | 167 to 169 °C
57 | CC(CI)CCCC(C)C1CC=C2C3=C(CCC21C)C1(C)CCC(O)C(C)(C)C1CC3 (stereo unspecified) | 148 °C
58 | Cc1cc(C2=NOC(c3cc(Cl)cc(Cl)c3)(C(F)(F)F)C2)ccc1C(=O)NC1(Cl)N=CC=CN1 (stereo unspecified) | 231 to 234 °C
59 | CC(O)C(C)(C)NC(=O)[C@@H]1CCCN1C(=O)[C@@H](O)[C@H](Cc1ccccc1)NC(=O)[C@H](CC(N)=O)NC(=O)OCc1ccccc1 (stereo partly specified) | 102 to 104 °C
60 | NCCC(O)(c1ccccc1)c1ccccc1 | 134 to 136 °C
61 | O[C@H]1CC[C@H](Oc2cccc3onc(OCC4CCN(CC5(O)CCOCC5)CC4)c23)C1 (relative stereo) | 147 °C
62 | O=C(NCCCCl)Nc1c(Cl)cccc1C(=O)O | 124 to 125 °C
63 | Cn1c(=O)c(S(C)=O)c(O)c2ccccc21 (stereo unspecified) | 197 to 200 °C

Row | Compound | melting point
64 | CCOC(=O)c1c(C)cc2nc(C)n(-c3ccccc3Cl)c(=O)c2c1C | 131 to 132 °C
65 | NS(=O)(=O)c1ccc(NC(=O)CCl)c(Cl)c1 | 162 to 164 °C
66 | c1cc2c(c3c1CCN3)CCS2 | 170 to 172 °C
67 | Clc1nc(N2CC3CCC(CC3)C2)nc(N2CC3CCC(CC3)C2)n1 | 195 to 200 °C
68 | CC(C)(C)OOC(C)(C)c1ccc(C(C)(C)OOC(C)(C)C)cc1 | 76 to 77 °C
69 | COc1cnc(C(O)Cc2c(Cl)cncc2Cl)cc1OC1CCCC1 (stereo unspecified) | 110 to 112 °C
70 | CCOC(=O)C(=O)c1csc(NC(=O)Nc2ccccc2F)n1 | 219 to 225 °C
71 | CN(C)C(=O)Oc1ccc2c(c1)N(Cc1ccccc1)CCC2 | 104 °C
72 | O=S(=O)(F)c1ccc(N=Nc2ccc(O)c(Cl)c2)cc1 | 133 to 134 °C
73 | CN(C)S(=O)(=O)n1cc(-c2ccccc2[N+](=O)[O-])nc1C#N | 111 to 114 °C
74 | Nc1nc2c(s1)CC(CN1CC=C(c3ccccc3)CC1)CC2 (stereo unspecified) | 187 to 190 °C
75 | Cc1cn2ccccc2c1S(=O)(=O)c1ccc(O)cc1 | 177 °C
76 | CC(C)C[C@H](NC(=O)C12CC3CC(CC(C3)C1)C2)C(=O)NCC(N)=O | 123 to 127 °C
77 | O=[N+]([O-])c1ccc(-c2cc(Br)sc2-c2ccc(F)cc2)cc1 | 129 to 130 °C
78 | C=CCN(CC=C)c1nc(NC(=O)OCC(C)C)n2oc(=O)nc2n1 | 161 to 163 °C
79 | COc1ccc(Nc2ccncc2)cc1 | 129 to 134 °C
80 | CCCCCCCCCCCCCCCCc1cc(-c2ccccn2)nc(-c2ccccn2)c1 | 97.5 to 99 °C
81 | NC(=O)Cc1nnc(S)o1 | 160 to 163 °C
82 | C=CCNC(=O)C(C#N)C(=O)C1CC1 (stereo unspecified) | 72 to 73.5 °C

Row | Compound | melting point
83 | CN1C(=O)CC[C@]2(C)c3ccc(-c4cc5ccccc5c5ccccc45)cc3CC[C@@H]12 | 218 to 220 °C
84 | CC1(C)OC(C=Cc2ccc(Cl)cc2)=CC1=O | 91 to 92 °C
85 | CC(=O)Nc1nc2ccc(Cl)nc2c(=O)[nH]1 | 317 to 319 °C
86 | N#Cc1c(N2CCc3ccccc3CC2)nc(C2CC2)n(CC(F)(F)F)c1=O | 116 to 118 °C
87 | CC(C)(C)OC(=O)CN1C(=O)SC(Cc2ccc(N3CCC(NCC(O)c4ccc(O)c(NS(C)(=O)=O)c4)CC3)cc2)C1=O (stereo unspecified) | 130 to 132 °C
88 | CCCOc1ncc(S(C)(=O)=O)cc1-c1nc2c(CC)nn(C[C@@H]3CCCN3C)c2c(=O)[nH]1 | 182 to 183 °C
89 | [N-]=[N+]=NS(=O)(=O)c1ccc(N2CC(CO)OC2=O)cc1 (stereo unspecified) | 108 to 110 °C
90 | CCNC(=O)[C@@H](C[C@H](O)[C@H](CC1CCCCC1)NC(=O)OC(C)(C)C)C(C)(C)O | 155 to 157 °C
91 | CCOc1ccc2[nH]c(=O)n(C(C)(C)COC)c2c1 | 149 °C
92 | O=[N+]([O-])c1sc2ccc(Cl)cc2c1Br | 176 to 178 °C
93 | CC(C)(CO)CCS(N)(=O)=O | 75 to 76 °C
94 | NC(=O)Cc1ccc2c(c1)sc1ccc(Cl)cc12 | 92 to 99 °C
95 | Cc1cccc(NC(=O)NC2N=C(C3CC3)c3cccc(C)c3N(CC(=O)C3CCCCC3)C2=O)c1 (stereo unspecified) | 144 °C
96 | O=C(O)C(Cl)=C(Cl)C(O)=NCCCc1ccc(Cl)cc1 | 72 to 73 °C
97 | CN1C(=O)N2CCSC2(C)C1=O (stereo unspecified) | 67 to 68 °C
98 | O=C1CC(=O)N(c2ccccc2)c2cc(Cl)ccc2N1CC1CC1 | 215 to 218 °C
99 | O=C(NCCCN1CCOCC1)c1ccccc1C(c1ccc(O)cc1)c1ccc(O)cc1 | 120 to 122 °C
100 | CC(=O)NNc1ccc(N)cc1 | 130 to 140 °C
101 | CC1(c2ccccc2)OC(=O)C(=O)CC1=O (stereo unspecified) | 142 to 144 °C
